# Data taken from patent US11110091B2, “Modulators of toll-like receptors” (Gilead Sciences, Inc., priority 2008, dated 2021).
# System: human Peripheral Blood Mononuclear Cell (PMBC)
# Assay: PBMC assay: cytokine (IFN-α) stimulation at 24 hours
# Format: cell-based
# Conditions: lowest concentration stimulating IFN-α production at least 3-fold over background, Luminex, read-out: IFN MEC
# Method: Assays were conducted to determine cytokine stimulation at 24 hours from human Peripheral Blood Mononuclear Cell (PMBC) using the compounds of the present invention. The assays were run in duplicate, with 8-point, half-log dilution curves. The compounds of the present invention were diluted from 10 mM DMSO solution. Cell supernatants are assayed directly for IFNα and 1:10 dilution for TNFα. The assays were performed in a similar fashion as described in Bioorg. […] Specifically, cryo-preserved PBMCs were thawed and seeded 96 well plates with 750,000 cells/well in 190 μL/well cell media. The PBMCs were then incubated for 1 hour at 37° C. at 5% CO2. Then, the compounds of the present invention were added in 10 μL cell media at 8 point, half-log dilution titration. The plates were incubated at 37° C. and 5% CO2 for 24 hours and then spinned at 1200 rpm for 10 min, which was followed by collecting supernatant and storing the same at −80° C. Cytokine secretion was assayed with Luminex and Upstate multi-plex kits, using a Luminex analysis instrument. The IFN-α MEC value for a compound was the lowest concentration at which the compound stimulated IFN-α production at least 3-fold over the background as determined using the assay method above.
row,SMILES,minimal effective concentration [µM]
1,CCOC(=O)CN(Cc1cccc(CN2CCCC2)c1)c1nc(O[C@@H](C)COC)nc(N)c1[N+](=O)[O-] [Compound 86],≤ 0.03
2,COCCOc1nc(N)c2c(n1)N(Cc1cccc(CN3CCCC3)c1)CC(=O)N2 [Example 2],≤ 0.03
3,"CCCCOc1nc(N)c2c(n1)N(Cc1cccc(CN3CCCC3)c1)C1(CC1)C(=O)N2 [Example 3, 4-Amino-2-n-butoxy-7-(1′″,2′″-ethylidene)-8-[3′-(pyrrolidin-1″-ylmethyl)-benzyl]-5,6,7,8-tetrahydropteridine-6-one]",> 0.03
4,"CCCCOc1nc(N)c2c(n1)N(Cc1ccc(CN3CCCC3)cc1)CC(=O)N2 [Example 4, 4-amino-2-n-butoxy-8-[4′-(pyrrolidin-1″-ylmethyl)-benzyl]-5,6,7,8-tetrahydropteridin-6-one]",≤ 0.03
5,"Nc1nc(OCC2CC2)nc2c1NC(=O)CN2Cc1cccc(CN2CCCC2)c1 [Example 5, 4-amino-2-{(cyclopropyl)methoxy}-8-[3′-(pyrrolidin-1″-ylmethyl)-benzyl]-5,6,7,8-tetrahydropteridin-6-one]",> 0.03
6,"CC1(COc2nc(N)c3c(n2)N(Cc2cccc(CN4CCCC4)c2)CC(=O)N3)CC1 [Example 6, 4-amino-2-{(1′″-methylcycloprop-1′″-yl)methoxy}-8-[3′-(pyrrolidin-1″-ylmethyl)-benzyl]-5,6,7,8-tetrahydropteridin-6-one]",> 0.03
7,"Nc1nc(OCC2CCC2)nc2c1NC(=O)CN2Cc1cccc(CN2CCCC2)c1 [Example 7, 4-amino-2-{(cyclobutyl)methoxy}-8-[3′-(pyrrolidin-1″-ylmethyl)-benzyl]-5,6,7,8-tetrahydropteridin-6-one]",> 0.03
8,"Nc1nc(OCC2CCCC2)nc2c1NC(=O)CN2Cc1cccc(CN2CCCC2)c1 [Example 8, 4-amino-2-{(cyclopentyl)methoxy}-8-[3′-(pyrrolidin-1″-ylmethyl)-benzyl]-5,6,7,8-tetrahydropteridin-6-one]",> 0.03
9,"Nc1nc(OCCC2CC2)nc2c1NC(=O)CN2Cc1cccc(CN2CCCC2)c1 [Example 9, 4-amino-2-{2′″-(cyclopropyl)ethoxy}-8-[3′-(pyrrolidin-1″-ylmethyl)-benzyl]-5,6,7,8-tetrahydropteridin-6-one]",≤ 0.03
10,CC(C)COc1nc(N)c2c(n1)N(Cc1cccc(CN3CCCC3)c1)CC(=O)N2 [Example 10],> 0.03
11,CC(C)CCOc1nc(N)c2c(n1)N(Cc1cccc(CN3CCCC3)c1)CC(=O)N2 [Example 11],> 0.03
12,CCCCCOc1nc(N)c2c(n1)N(Cc1cccc(CN3CCCC3)c1)CC(=O)N2 [Example 12],> 0.03
13,Nc1nc(OCC2CCCCC2)nc2c1NC(=O)CN2Cc1cccc(CN2CCCC2)c1 [Example 13],> 0.03
14,CC(C)(C)COc1nc(N)c2c(n1)N(Cc1cccc(CN3CCCC3)c1)CC(=O)N2 [Example 14],> 0.03
15,Nc1nc(OCc2ccccc2)nc2c1NC(=O)CN2Cc1cccc(CN2CCCC2)c1 [Example 15],> 0.03
16,Nc1nc(OCc2cccnc2)nc2c1NC(=O)CN2Cc1cccc(CN2CCCC2)c1 [Example 16],> 0.03
17,Nc1nc(OCC2CCOC2)nc2c1NC(=O)CN2Cc1cccc(CN2CCCC2)c1 (centres unmarked) [Example 17],> 0.03
18,COP(=O)(CCOc1nc(N)c2c(n1)N(Cc1cccc(CN3CCCC3)c1)CC(=O)N2)OC [Example 18],> 0.03
19,Nc1nc(OCCn2ccnc2)nc2c1NC(=O)CN2Cc1cccc(CN2CCCC2)c1 [Example 19],> 0.03
20,CS(=O)(=O)CCOc1nc(N)c2c(n1)N(Cc1cccc(CN3CCCC3)c1)CC(=O)N2 [Example 20],> 0.03
21,Nc1nc(OC2CCCC2)nc2c1NC(=O)CN2Cc1cccc(CN2CCCC2)c1 [Example 21],≤ 0.03

row,SMILES,minimal effective concentration [µM]
1,Nc1nc(OCCN2CCCC2=O)nc2c1NC(=O)CN2Cc1cccc(CN2CCCC2)c1 [Example 22],> 0.03
2,Nc1nc(OCCOc2ccccc2)nc2c1NC(=O)CN2Cc1cccc(CN2CCCC2)c1 [Example 23],> 0.03
3,CCCC(C)Oc1nc(N)c2c(n1)N(Cc1cccc(CN3CCCC3)c1)CC(=O)N2 (centres unmarked) [Example 24],≤ 0.03
4,CCC(CC)Oc1nc(N)c2c(n1)N(Cc1cccc(CN3CCCC3)c1)CC(=O)N2 [Example 25],≤ 0.03
5,CCCCSc1nc(N)c2c(n1)N(Cc1cccc(CN3CCCC3)c1)CC(=O)N2 [Example 26],> 0.03
6,Nc1nc(OCCCCO)nc2c1NC(=O)CN2Cc1cccc(CN2CCCC2)c1 [Example 27],> 0.03
7,CC(C)(O)CCOc1nc(N)c2c(n1)N(Cc1cccc(CN3CCCC3)c1)CC(=O)N2 [Example 28],> 0.03
8,Nc1nc(OCC2CCCO2)nc2c1NC(=O)CN2Cc1cccc(CN2CCCC2)c1 (centres unmarked) [Example 29],> 0.03
9,Nc1nc(OCC2CCOCC2)nc2c1NC(=O)CN2Cc1cccc(CN2CCCC2)c1 [Example 30],≤ 0.03
10,CCC(CC)COc1nc(N)c2c(n1)N(Cc1cccc(CN3CCCC3)c1)CC(=O)N2 [Example 31],≤ 0.03
11,CCCCNc1nc(N)c2c(n1)N(Cc1cccc(CN3CCCC3)c1)CC(=O)N2 [Example 32],> 0.03
12,COCCNc1nc(N)c2c(n1)N(Cc1cccc(CN3CCCC3)c1)CC(=O)N2 [Example 33],> 0.03
13,CC(C)(C)CNc1nc(N)c2c(n1)N(Cc1cccc(CN3CCCC3)c1)CC(=O)N2 [Example 34],> 0.03
14,Nc1nc(NC2CC2)nc2c1NC(=O)CN2Cc1cccc(CN2CCCC2)c1 [Example 35],> 0.03
15,Nc1nc(NC2CCCCC2)nc2c1NC(=O)CN2Cc1cccc(CN2CCCC2)c1 [Example 36],> 0.03
16,COC[C@H](C)Nc1nc(N)c2c(n1)N(Cc1cccc(CN3CCCC3)c1)CC(=O)N2 [Example 37],≤ 0.03
17,Nc1nc(NCc2ccco2)nc2c1NC(=O)CN2Cc1cccc(CN2CCCC2)c1 [Example 38],≤ 0.03
18,Nc1nc(NCC2CC2)nc2c1NC(=O)CN2Cc1cccc(CN2CCCC2)c1 [Example 39],≤ 0.03
19,Nc1nc(NC2CCC2)nc2c1NC(=O)CN2Cc1cccc(CN2CCCC2)c1 [Example 40],≤ 0.03
20,Nc1nc(NC2CCCC2)nc2c1NC(=O)CN2Cc1cccc(CN2CCCC2)c1 [Example 41],≤ 0.03
21,Nc1nc(N2CCC2)nc2c1NC(=O)CN2Cc1cccc(CN2CCCC2)c1 [Example 42],> 0.03

row,SMILES,minimal effective concentration [µM]
1,Nc1nc(N2CCCC2)nc2c1NC(=O)CN2Cc1cccc(CN2CCCC2)c1 [Example 43],≤ 0.03
2,CS(=O)(=O)CCNc1nc(N)c2c(n1)N(Cc1cccc(CN3CCCC3)c1)CC(=O)N2 [Example 44],> 0.03
3,CCOP(=O)(CCNc1nc(N)c2c(n1)N(Cc1cccc(CN3CCCC3)c1)CC(=O)N2)OCC [Example 45],> 0.03
4,Nc1nc(N[C@@H]2CCOC2)nc2c1NC(=O)CN2Cc1cccc(CN2CCCC2)c1 [Example 46],> 0.03
5,"CCCCOc1nc(N)c2c(n1)N(Cc1cccc(CN3CCCC3)c1)CC(=O)N2 [Example 49, 4-amino-2-n-butoxy-8-[3′-(pyrrolidin-1″-ylmethyl)-benzyl]-5,6,7,8-tetrahydropteridin-6-one]",≤ 0.03
6,CCCCOc1nc(N)c2c(n1)N(Cc1cccc(CN3CCCC3)c1)CCC(=O)N2 [Example 50],> 0.03
7,CCCCOc1nc(N)c2c(n1)N(Cc1ccc3c(c1)CNCC3)CC(=O)N2 [Example 51],≤ 0.03
8,CCCCOc1nc(N)c2c(n1)N(Cc1ccc3c(c1)CN(CC)CC3)CC(=O)N2 [Example 52],≤ 0.03
9,CCCCCc1nc(N)c2c(n1)N(Cc1cccc(CN3CCCC3)c1)CC(=O)N2 [Example 53],> 0.03
10,CCCCOc1nc(N)c2c(n1)N(Cc1cccc(CN3CCC(C(=O)OC)CC3)c1)CC(=O)N2 [Example 54],> 0.03
11,Nc1nc(OCCC(F)(F)F)nc2c1NC(=O)CN2Cc1cccc(CN2CCCC2)c1 [Example 55],≤ 0.03
12,Nc1nc(OCCCC(F)(F)F)nc2c1NC(=O)CN2Cc1cccc(CN2CCCC2)c1 [Example 56],≤ 0.03
13,CCCCOc1nc(N)c2c(n1)N(Cc1ccccc1CN1CCCC1)CC(=O)N2 [Example 57],> 0.03
14,CCC[C@@H](C)Oc1nc(N)c2c(n1)N(Cc1cccc(CN3CCCC3)c1)CC(=O)N2 [Example 58],> 0.03
15,CCC[C@H](C)Oc1nc(N)c2c(n1)N(Cc1cccc(CN3CCCC3)c1)CC(=O)N2 [Example 59],≤ 0.03
16,CCC[C@@H](C)Oc1nc(N)c2c(n1)N(Cc1ccc(CN3CCCC3)cc1)CC(=O)N2 [Example 60],> 0.03
17,CCC[C@H](C)Oc1nc(N)c2c(n1)N(Cc1ccc(CN3CCCC3)cc1)CC(=O)N2 [Example 61],≤ 0.03
18,CCOc1nc(N)c2c(n1)N(Cc1cccc(CN3CCCC3)c1)CC(=O)N2 [Example 62],> 0.03
19,Nc1nc(O)nc2c1NC(=O)CN2Cc1cccc(CN2CCCC2)c1 [Example 63],> 0.03
20,CCCCOc1nc(N)c2c(n1)N(Cc1cccc(CN3CCCC3)c1)C(C)C(=O)N2 (centres unmarked) [Example 64],> 0.03
